{"source": "patent US7943382B2", "about": "“Method for inspecting fat-soluble vitamin and/or fat-soluble food factor by saliva analysis” (Mitsubishi Chemical Medience Corporation, priority 2004, dated 2011)", "assay_type_in_all_cases": "physicochemical", "key": {"[1]": {"assay": "Adsorption of CoQ10 in saliva to absorbent materials (no extraction)", "experimental": "In the method of preparing the specimens in example 2, the absorbent materials for saliva were weighed. 50 mg of an absorbent was soaked in 600 μl of saliva, 20 μl of saliva was fractionated to analyze the CoQ10 concentration in saliva transuaded from the absorbent, to which 180 μl of isopropanol was added, mixed, and centrifuged at 4° C. by 1000 G for 5 minutes to remove proteins, and 20 μl of the supernatant was subjected to HPLC. The results of analysis for CoQ10 are shown in Table 1 as “CoQ10 concentrations in saliva which was obtained by steps that 50 mg of the absorbent was soaked in 600 μl of saliva and the saliva was preserved in the interspace of the absorbent”. It took about 3 minutes to secrete 1 ml of parotid saliva for the volunteers who spent little time, and 10 minutes or longer for the volunteers who spent lots of time, therefore it is practically difficult to collect without the absorbent. In this case, the fat-soluble food factors and the fat-soluble vitamins are adsorbed by any absorbent materials for saliva such as polyester, cotton and acetylcellulose. Although it is lowly absorptive, polyurethane fills water in saliva as bound water, so that condensation is caused, resulting in apparently high level (Refer to Table 1). Consequently, the adsorbed component should be extracted. […] That means, a certain amount of saliva should be absorbed to a certain amount of absorbent in the oral cavity."}, "[2]": {"assay": "Extraction of CoQ10 from saliva and absorbent depending on deproteinization solvent", "experimental": "In the method of preparing the specimens in examples 1 and 2, the solvents were weighed using ethanol (90, 75, 50%), isopropanol (90, 75, 50%) or methanol (90, 75, 50%). Saliva of 600 μl, and 600, 1800 and 5400 μl of the solvent respectively were added to 50 mg of an absorbent to have a final concentrations of 50, 75 and 90% (V/V) respectively. The resultant solution was mixed, stirred, and centrifuged at 4° C. by 1000 G to get a supernatant, 20 μl of which was used to analyze CoQ10 by HPLC. As a result, the values shown in the following Table 2 “The CoQ10 concentrations in the supernatant obtained by deproteinizing saliva in three solvents and at three concentration levels (ng/ml)” were obtained. Ethanol, which was not affected by adsorption to proteins even at a concentration of 75% and could efficiently extract, was confirmed to be most suitable."}, "[3]": {"assay": "Extraction of CoQ10 from absorbent materials with 75% (V/V) ethanol", "experimental": "In the method of preparing the specimens in example 2, the absorbent materials for saliva and the collection rate by extraction with 75% (V/V) ethanol were weighed. An absorbent of 50 mg was soaked in 600 μl of saliva, to which […] of ethanol was added, mixed, and centrifuged at 4° C. by 1000 G or 5 minutes to remove proteins, and 20 μl of the supernatant was subjected to HPLC. The results of analysis for CoQ10 are shown in Table 3 as “CoQ10 concentrations in saliva which was obtained by steps that 50 mg of the absorbent was soaked in 600 μl of saliva and the saliva was extracted with 1800 μl of ethanol (final concentration: 75%)”. […] Thus, although the fat-soluble components in saliva are adsorbed to the absorbent, the content in a certain amount of saliva can be determined by analyzing the summation of the fat-soluble food factors and the fat-soluble vitamins contained in saliva preserved in the absorbent and interspace."}, "[4]": {"conditions": "50 mg Acetylcellulose soaked in 600 μl of saliva"}, "[5]": {"conditions": "50 mg Cotton soaked in 600 μl of saliva"}, "[6]": {"conditions": "50 mg Polyester soaked in 600 μl of saliva"}, "[7]": {"conditions": "50 mg Polyurethane soaked in 600 μl of saliva"}, "[8]": {"conditions": "Acetylcellulose + ethanol (final concentration 75%)"}, "[9]": {"conditions": "Cotton + ethanol (final concentration 75%)"}, "[10]": {"conditions": "Polyester + ethanol (final concentration 75%)"}, "[11]": {"conditions": "Polyurethane + ethanol (final concentration 75%)"}}, "data": [{"smiles": "COC1=C(OC)C(=O)C(C/C=C(\\C)CC/C=C(\\C)CC/C=C(\\C)CC/C=C(\\C)CC/C=C(\\C)CC/C=C(\\C)CC/C=C(\\C)CC/C=C(\\C)CC/C=C(\\C)CCC=C(C)C)=C(C)C1=O", "note": "[CoQ10, Ubidecarenone]", "values": [{"measurement": "CoQ10 concentration in saliva preserved in the interspace of the absorbent", "setting": "[1]; [4]", "result": 25, "unit": "ng/mL"}, {"measurement": "Collection rate", "setting": "[1]; [4]", "result": 7.3, "unit": "%"}, {"measurement": "CoQ10 concentration in saliva preserved in the interspace of the absorbent", "setting": "[1]; [5]", "result": 3.4, "unit": "ng/mL"}, {"measurement": "Collection rate", "setting": "[1]; [5]", "result": 10.2, "unit": "%"}, {"measurement": "CoQ10 concentration in saliva preserved in the interspace of the absorbent", "setting": "[1]; [6]", "result": 19.6, "unit": "ng/mL"}, {"measurement": "Collection rate", "setting": "[1]; [6]", "result": 58.2, "unit": "%"}, {"measurement": "CoQ10 concentration in saliva preserved in the interspace of the absorbent", "setting": "[1]; [7]", "result": 59.8, "unit": "ng/mL"}, {"measurement": "Collection rate", "setting": "[1]; [7]", "result": 178, "unit": "%"}, {"measurement": "CoQ10 concentration in saliva", "setting": "[1]; Saliva (control), no absorbent", "result": 33.7, "unit": "ng/mL"}, {"measurement": "Collection rate", "setting": "[1]; Saliva (control), no absorbent", "result": 100, "unit": "%"}, {"measurement": "Collection amount of CoQ10 by the solvents", "setting": "[2]; ethanol 50 V/V %", "result": 3, "unit": "ng/mL"}, {"measurement": "Collection amount of CoQ10 by the solvents", "setting": "[2]; ethanol 75 V/V %", "result": 86, "unit": "ng/mL"}, {"measurement": "Collection amount of CoQ10 by the solvents", "setting": "[2]; ethanol 90 V/V %", "result": 98, "unit": "ng/mL"}, {"measurement": "Collection amount of CoQ10 by the solvents", "setting": "[2]; isopropanol 50 V/V %", "result": 23, "unit": "ng/mL"}, {"measurement": "Collection amount of CoQ10 by the solvents", "setting": "[2]; isopropanol 75 V/V %", "result": 19, "unit": "ng/mL"}, {"measurement": "Collection amount of CoQ10 by the solvents", "setting": "[2]; isopropanol 90 V/V %", "result": 56, "unit": "ng/mL"}, {"measurement": "Collection amount of CoQ10 by the solvents", "setting": "[2]; methanol 50 V/V %", "result": 2, "unit": "ng/mL"}, {"measurement": "Collection amount of CoQ10 by the solvents", "setting": "[2]; methanol 75 V/V %", "result": 2, "unit": "ng/mL"}, {"measurement": "Collection amount of CoQ10 by the solvents", "setting": "[2]; methanol 90 V/V %", "result": 61, "unit": "ng/mL"}, {"measurement": "CoQ10 concentration in saliva after extraction", "setting": "[3]; [8]", "result": 31.8, "unit": "ng/mL"}, {"measurement": "Collection rate", "setting": "[3]; [8]", "result": 94.3, "unit": "%"}, {"measurement": "CoQ10 concentration in saliva after extraction", "setting": "[3]; [9]", "result": 32.2, "unit": "ng/mL"}, {"measurement": "Collection rate", "setting": "[3]; [9]", "result": 95.6, "unit": "%"}, {"measurement": "CoQ10 concentration in saliva after extraction", "setting": "[3]; [10]", "result": 34.2, "unit": "ng/mL"}, {"measurement": "Collection rate", "setting": "[3]; [10]", "result": 102, "unit": "%"}, {"measurement": "CoQ10 concentration in saliva after extraction", "setting": "[3]; [11]", "result": 32.1, "unit": "ng/mL"}, {"measurement": "Collection rate", "setting": "[3]; [11]", "result": 95.2, "unit": "%"}, {"measurement": "CoQ10 concentration in saliva", "setting": "[3]; Saliva (control)", "result": 33.7, "unit": "ng/mL"}, {"measurement": "Collection rate", "setting": "[3]; Saliva (control)", "result": 100, "unit": "%"}, {"measurement": "collection by extraction, independent of the absorbent material", "setting": "[3]; ethanol 75% (V/V)", "result": "approximately 100%"}]}]}
